Positions of bridges follow the written chain, without caps; N, C: chain ends. Residues, ends and D or L forms follow the SMILES beside them.
Tests used:
[1] = molecular target: T1, human BACE1 (rhBACE1) (Homo sapiens, UniProt P56817); test: BACE1 fluorescence polarization (FP) competition binding assay with 5-TAMRA-BACE020 probe; conditions: for IC50: competition with 3 nM 5-TAMRA-BACE020, 12 nM rhBACE1, pH 4.4
Protocol: BACE1 Fluorescence Polarization Competition Binding Assay.
BACE1 binding assays were carried out in a final volume of 10 μL per well in black 384-well microplates (Proxiplate-Plus; Perkin Elmer, Waltham, Mass.). A standard binding reaction, initiated by the addition of 5 μL 2× enzyme to 2.5 μL of 4× binding probe and […] of 4× inhibitor, contained 12 nM rhBACE1, 3 nM 5-TAMRA-[…] (SEQ ID NO: 16) (5-TAMRA-BACE020), 50 mM NaOAc, pH 4.4 with 0.1% CHAPS. The reaction was permitted to proceed towards equilibrium for 2 h at ambient temperature prior to fluorescence polarization measurement using Envision (Perkin Elmer). The parallel and perpendicular fluorescent emissions measured in each well at 595 nm (excitation 531 nm polarized light) were used to determine the milli-polarization level (mP) using the following formula: mP=1000*(S-G*P)/(S+G*P) where S=parallel emission, P=perpendicular emission and G=0.65. The mP value in each well was plotted as a function of inhibitor concentration and the 50% inhibition (IC50) values were determined using a nonlinear least squares fit of the data to a four parameter equation using Prism 5.0 software (GraphPad Software, San Diego, Calif.). 5-TAMRA-labeled BACE020 was purchased from American Peptide Company, Inc (Sunnyvale, Calif.) and solubilized in DMSO to 100 mM for storage.
The affinities of BACE1 peptide ligands were measured using the abovementioned competition binding FP assay for determining IC50 values with serially diluted peptides. A Caliper assay was used to measure the inhibition of BACE1 enzymatic activity by peptide ligands. […] Furthermore, the IC50 values measured by the Caliper assay for peptides BACE017-021 and BACE025-028 are consistent with those measured by the HTRF assay.
Target sequence in this assay (P56817 46-501): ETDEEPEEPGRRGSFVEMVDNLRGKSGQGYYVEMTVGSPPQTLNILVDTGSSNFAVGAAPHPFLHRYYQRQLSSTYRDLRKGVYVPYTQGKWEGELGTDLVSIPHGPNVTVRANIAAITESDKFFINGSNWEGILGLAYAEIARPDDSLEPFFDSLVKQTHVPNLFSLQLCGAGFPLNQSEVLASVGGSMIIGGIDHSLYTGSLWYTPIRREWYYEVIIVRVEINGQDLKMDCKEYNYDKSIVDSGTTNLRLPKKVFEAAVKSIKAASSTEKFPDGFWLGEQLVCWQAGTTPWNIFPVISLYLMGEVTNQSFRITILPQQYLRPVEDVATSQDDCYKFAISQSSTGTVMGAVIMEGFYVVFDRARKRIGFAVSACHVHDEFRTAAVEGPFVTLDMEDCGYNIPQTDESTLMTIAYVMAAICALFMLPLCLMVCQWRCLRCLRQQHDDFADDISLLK

[2] = molecular target: T1, human BACE1 (rhBACE1); test: Caliper BACE1 activity assay (microfluidic capillary electrophoresis); assay type: biochemical; set-up: containing human BACE1 (extracellular domain); conditions: for IC50: 12 nM rhBACE1, 1 μM FAM-substrate, pH 4.4
Protocol: An MCE assay reactions can be carried out in a standard enzymatic reaction, initiated by the addition of substrate to enzyme and 4× compound, containing human BACE1 (extracellular domain), amyloid precursor protein beta secretase active site peptide (FAM-[…]-CONH2 (SEQ ID NO: 20)), 50 mM NaOAc pH 4.4 and 0.1% CHAPS. After incubation for 60 minutes at ambient temperature, the product and substrate in each reaction is separated using a 12-sipper microfluidic chip analyzed on an LC3000® (both, Caliper Life Sciences). The separation of product and substrate is optimized by choosing voltages and pressure using the manufacturer's optimization software. Substrate conversion is calculated from the electrophoregram using HTS Well Analyzer software (Caliper Life Sciences).
BACE1, BACE2 and Cathepsin D Activity Assay Using Microfluidic Capillary Electrophoresis (MCE).
BACE1, BACE2, and Cathepsin D reactions were carried out in a final volume of 20 μl per well in a 384-well microplate using a Caliper LabChip 3000 (Hopkinton, Mass.). A standard enzymatic reaction, initiated by the addition of 10 μ12× substrate to 5 μl of 4× enzyme and 5 μl of 4× peptide or small molecule inhibitor, contained 12 nM rhBACE1, 1 μM FAM-[…]-amide (SEQ ID NO: 20), 50 mM NaOAc, pH 4.4, 0.1% CHAPS. The same reaction conditions were used for rhBACE2 (5 nM) and Cathepsin D (6 nM) (Cat. No. 219394; EMD Biosciences, San Diego, Calif.). After incubation for 60 min at room temperature, the product and substrate in each reaction were separated using a 12-sipper microfluidic chip. Separation of product and substrate was optimized by choosing voltages and pressure using the Caliper Optimizer software. The separation buffer contained 100 mM HEPES, pH 7.2, 0.015% Brij-35, 0.1% Coating Reagent #3, 10 mM EDTA and 5% DMSO. The separation conditions used a downstream voltage of −500 V, an upstream voltage of −2250 V, and a screening pressure of −1.2 psi. The product and substrate fluorescence was excited at 488 nm and detected at 530 nm. Substrate conversion was calculated from the electrophoregram using the Caliper HTS Well Analyzer software.
Target sequence in this assay (P56817 46-457 limits assumed): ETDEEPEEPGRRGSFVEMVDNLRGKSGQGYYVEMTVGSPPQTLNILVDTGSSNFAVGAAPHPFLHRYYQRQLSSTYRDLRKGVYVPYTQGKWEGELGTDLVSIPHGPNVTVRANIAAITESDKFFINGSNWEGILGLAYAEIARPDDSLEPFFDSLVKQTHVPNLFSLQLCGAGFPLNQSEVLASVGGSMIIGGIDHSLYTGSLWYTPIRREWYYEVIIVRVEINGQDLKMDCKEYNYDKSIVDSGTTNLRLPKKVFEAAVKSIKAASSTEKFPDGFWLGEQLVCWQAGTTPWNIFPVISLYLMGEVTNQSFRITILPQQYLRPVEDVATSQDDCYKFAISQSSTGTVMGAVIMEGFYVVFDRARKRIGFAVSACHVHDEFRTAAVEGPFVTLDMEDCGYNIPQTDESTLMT

Row | IC50 [1] [µM] | IC50 [2] [µM] | weakening of affinity relative to BACE020 ([1]; FP binding assay) | weakening of inhibitory activity relative to BACE020 ([2]; Caliper activity assay) | Molecule
1 | > 10 | > 10 | – | – | CC[C@H](C)[C@@H]1NC(=O)CNC(=O)[C@H](CC(C)C)NC(=O)[C@H](CC(C)C)NC(=O)[C@H](C)NC(=O)[C@@H](NC(=O)[C@H](Cc2ccc(O)cc2)NC(=O)[C@H](CCSC)NC(=O)[C@H](CO)NC(=O)[C@H](CCC(=O)O)NC(C)=O)CSSC[C@@H](C(=O)NCC(N)=O)NC(=O)CNC1=O [BACE057] (Ac-ESMYCALLGIGCG-NH2; disulfide 5-12)
2 | > 10 | – | – | – | CC[C@H](C)[C@@H]1NC(=O)CNC(=O)[C@H](CC(C)C)NC(=O)[C@H](CC(C)C)NC(=O)[C@H](CCCNC(=N)N)NC(=O)[C@@H](NC(=O)[C@H](Cc2ccc(O)cc2)NC(=O)[C@H](CCSC)NC(C)=O)CSSC[C@@H](C(=O)NCC(N)=O)NC(=O)CNC1=O [BACE032] (Ac-MYCRLLGIGCG-NH2; disulfide 3-10)
3 | ≥ 10 | ≥ 10 | – | – | Ac-KEESIYSRLMGLGSG-NH2 [BACE025]
4 | – | – | 3-4 fold | 3-4 fold | CC[C@H](C)[C@@H]1NC(=O)CNC(=O)[C@H](CC(C)C)NC(=O)[C@H](CC(C)C)NC(=O)[C@H](CCCNC(=N)N)NC(=O)[C@@H](NC(=O)[C@H](Cc2ccc(O)cc2)NC(=O)[C@H](CCSC)NC(=O)[C@H](CO)NC(C)=O)CSSC[C@@H](C(=O)NCC(N)=O)NC(=O)CNC1=O [BACE031] (Ac-SMYCRLLGIGCG-NH2; disulfide 4-11)
5 | – | 0.011 ± 0.002 | – | – | CC[C@H](C)[C@@H]1NC(=O)CNC(=O)[C@H](CC(C)C)NC(=O)[C@H](CC(C)C)NC(=O)[C@H](CCCNC(=N)N)NC(=O)[C@@H](NC(=O)[C@H](Cc2ccccc2)NC(=O)[C@H](CCSC)NC(=O)[C@H](CO)NC(=O)[C@H](CCC(=O)O)NC(=O)[C@H](CCC(=O)O)NC(=O)[C@H](CC(N)=O)NC(C)=O)CSSC[C@@H](C(=O)NCC(N)=O)NC(=O)CNC1=O [BACE055] (Ac-NEESMFCRLLGIGCG-NH2; disulfide 7-14)
6 | 0.012 ± 0.003 | 0.007 ± 0.004 | – | – | CC[C@H](C)[C@@H]1NC(=O)CNC(=O)[C@H](CC(C)C)NC(=O)[C@H](CC(C)C)NC(=O)[C@H](CCCNC(=N)N)NC(=O)[C@@H](NC(=O)[C@H](Cc2ccc(O)cc2)NC(=O)[C@H](CCSC)NC(=O)[C@H](CO)NC(=O)[C@H](CCC(=O)O)NC(=O)[C@H](CCC(=O)O)NC(=O)[C@H](CC(N)=O)NC(C)=O)CSSC[C@@H](C(=O)N[C@@H](C)C(N)=O)NC(=O)CNC1=O [BACE054] (Ac-NEESMYCRLLGIGCA-NH2; disulfide 7-14)
7 | – | 0.013 ± 0.002 | – | – | CC[C@H](C)[C@@H]1NC(=O)CNC(=O)[C@H](CC(C)C)NC(=O)[C@H](CC(C)C)NC(=O)[C@H](CCCNC(=N)N)NC(=O)[C@@H](NC(=O)[C@H](Cc2ccc(O)cc2)NC(=O)[C@H](CCSC)NC(=O)[C@H](CO)NC(=O)[C@H](CCC(=O)O)NC(=O)[C@H](C)NC(=O)[C@H](CC(N)=O)NC(C)=O)CSSC[C@@H](C(=O)NCC(N)=O)NC(=O)CNC1=O [BACE043] (Ac-NAESMYCRLLGIGCG-NH2; disulfide 7-14)
8 | > 10 | – | – | – | CC[C@H](C)[C@H](NC(=O)[C@H](Cc1ccccc1)NC(=O)[C@H](Cc1ccc(O)cc1)NC(=O)[C@@H]1CCCN1C(=O)[C@H](Cc1ccc(O)cc1)NC(C)=O)C(=O)N1CCC[C@H]1C(=O)N[C@@H](CC(C)C)C(N)=O [BMS4, reference compound]

The remaining lines, values behind:

Row | Molecule | IC50 [1] [µM] | IC50 [2] [µM] | weakening of affinity relative to BACE020 ([1]; FP binding assay) | weakening of inhibitory activity relative to BACE020 ([2]; Caliper activity assay)
9 | CC[C@H](C)[C@@H]1NC(=O)CNC(=O)[C@H](CC(C)C)NC(=O)[C@H](CC(C)C)NC(=O)[C@H](C)NC(=O)[C@@H](NC(=O)[C@H](Cc2ccc(O)cc2)NC(=O)[C@H](CCSC)NC(=O)[C@H](CO)NC(=O)[C@H](CCC(=O)O)NC(=O)[C@H](CCC(=O)O)NC(=O)[C@H](CC(N)=O)NC(C)=O)CSSC[C@@H](C(=O)NCC(N)=O)NC(=O)CNC1=O [BACE048] (Ac-NEESMYCALLGIGCG-NH2; disulfide 7-14) | > 10 | > 10 | – | –
10 | CC[C@H](C)[C@@H]1NC(=O)CNC(=O)[C@H](CC(C)C)NC(=O)[C@H](CC(C)C)NC(=O)[C@H](CCCNC(=N)N)NC(=O)[C@@H](NC(=O)[C@H](Cc2ccc(O)cc2)NC(=O)[C@H](CCSC)NC(=O)[C@H](CO)NC(=O)[C@H](CCC(=O)O)NC(=O)[C@H](CCC(=O)O)NC(=O)[C@H](CC(N)=O)NC(C)=O)CSSC[C@@H](C(=O)NCC(N)=O)NC(=O)[C@H](C)NC1=O [BACE053] (Ac-NEESMYCRLLGIACG-NH2; disulfide 7-14) | – | 0.007 | – | –
11 | CC[C@H](C)[C@@H]1NC(=O)CNC(=O)[C@H](CC(C)C)NC(=O)[C@H](CC(C)C)NC(=O)[C@H](CCCNC(=N)N)NC(=O)[C@@H](NC(C)=O)CSSC[C@@H](C(=O)NCC(N)=O)NC(=O)CNC1=O [BACE034] (Ac-CRLLGIGCG-NH2; disulfide 1-8) | > 10 | – | – | –
12 | CC[C@H](C)[C@@H]1NC(=O)CNC(=O)[C@H](CC(C)C)NC(=O)[C@H](CC(C)C)NC(=O)[C@H](CCCNC(=N)N)NC(=O)[C@@H](NC(=O)[C@H](Cc2ccc(O)cc2)NC(=O)[C@H](CCSC)NC(=O)[C@H](Cc2c[nH]cn2)NC(=O)[C@H](CCC(=O)O)NC(=O)[C@H](CCC(=O)O)NC(=O)[C@H](CC(N)=O)NC(C)=O)CSSC[C@@H](C(=O)NCC(N)=O)NC(=O)CNC1=O [BACE056] (Ac-NEEHMYCRLLGIGCG-NH2; disulfide 7-14) | – | 3.57 ± 3.65 | – | –
13 | CC[C@H](C)[C@@H]1NC(=O)[C@H](C)NC(=O)[C@H](CC(C)C)NC(=O)[C@H](CC(C)C)NC(=O)[C@H](CCCNC(=N)N)NC(=O)[C@@H](NC(=O)[C@H](Cc2ccc(O)cc2)NC(=O)[C@H](CCSC)NC(=O)[C@H](CO)NC(=O)[C@H](CCC(=O)O)NC(=O)[C@H](CCC(=O)O)NC(=O)[C@H](CC(N)=O)NC(C)=O)CSSC[C@@H](C(=O)NCC(N)=O)NC(=O)CNC1=O [BACE051] (Ac-NEESMYCRLLAIGCG-NH2; disulfide 7-14) | – | 0.018 ± 0.005 | – | –
14 | CC[C@H](C)[C@@H]1NC(=O)CNC(=O)[C@H](CC(C)C)NC(=O)[C@H](CC(C)C)NC(=O)[C@H](CCCNC(=N)N)NC(=O)[C@@H](NC(=O)[C@H](Cc2ccc(O)cc2)NC(=O)[C@H](CCSC)NC(=O)[C@H](CO)NC(=O)[C@H](CCC(=O)O)NC(=O)[C@H](CCC(=O)O)NC(C)=O)CSSC[C@@H](C(=O)NCC(N)=O)NC(=O)CNC1=O [BACE029] (Ac-EESMYCRLLGIGCG-NH2; disulfide 6-13) | 0.012 | 0.013 ± 0.008 | – | –
15 | Ac-PEESLYSRLLALGSG-NH2 [BACE028] | > 10 | > 10 | – | –
16 | CC[C@H](C)[C@@H]1NC(=O)CNC(=O)[C@H](CC(C)C)NC(=O)[C@H](CC(C)C)NC(=O)[C@H](CCCNC(=N)N)NC(=O)[C@@H](NC(=O)[C@H](Cc2ccc(O)cc2)NC(=O)[C@H](CCSC)NC(=O)[C@H](CO)NC(=O)[C@H](CCC(=O)O)NC(=O)[C@H](CCC(=O)O)NC(=O)[C@H](C)NC(C)=O)CSSC[C@@H](C(=O)NCC(N)=O)NC(=O)CNC1=O [BACE042] (Ac-AEESMYCRLLGIGCG-NH2; disulfide 7-14) | – | 0.012 ± 0.008 | – | –
17 | CC[C@H](C)[C@@H]1NC(=O)CNC(=O)[C@H](CC(C)C)NC(=O)[C@H](CC(C)C)NC(=O)[C@H](CCCNC(=N)N)NC(=O)[C@@H](NC(=O)[C@H](Cc2ccc(O)cc2)NC(C)=O)CSSC[C@@H](C(=O)NCC(N)=O)NC(=O)CNC1=O [BACE033] (Ac-YCRLLGIGCG-NH2; disulfide 2-9) | > 10 | – | – | –

Source: patent US9624269B2, “Peptide inhibitors of BACE1” (GENENTECH, INC., priority 2011, dated 2017)
